Laboratory results reported in PubChem BioAssay AID1963960 (Molecular Pharmacology Branch, DTP, NCI, 2024).

System: MDA-MB-468 spheroids with HUVEC/MSC, viability
Experiment: Anticancer human tumor MDA-MB-468 cell line growth inhibition [PI3K];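 further: spheroids exposed to agents for seven days before readout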;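 on viability, T/C: 100% = DMSO vehicle control viability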
Conditions: for viability, T/C: stronger effect = lower value
In short: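 Targeted small molecules plus PI3K inhibitors, half-log dose series from Cmax (default top 10 microM), were applied to heterotypic spheroids of cancer cells with HUVEC and MSCs. Viability indicated growth inhibition.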

[1] = curve of first compound, second compound 0.00316 µM
[2] = curve of first compound, second compound 0.01 µM
[3] = curve of first compound, second compound 0.0316 µM
[4] = curve of first compound, second compound 0.1 µM
[5] = curve of first compound, second compound 0.316 µM
[6] = curve of first compound, second compound 1 µM
[7] = second compound 0.00316 µM, first compound 0.0316 µM
[8] = second compound 0.00316 µM, first compound 0.1 µM
[9] = second compound 0.00316 µM, first compound 0.316 µM
[10] = second compound 0.00316 µM, first compound 1 µM
[11] = second compound 0.00316 µM, first compound 3.16 µM
[12] = second compound 0.00316 µM, first compound 10 µM
[13] = second compound 0.01 µM, first compound 0.0316 µM
[14] = second compound 0.01 µM, first compound 0.1 µM
[15] = second compound 0.01 µM, first compound 0.316 µM
[16] = second compound 0.01 µM, first compound 1 µM
[17] = second compound 0.01 µM, first compound 3.16 µM
[18] = second compound 0.01 µM, first compound 10 µM
[19] = second compound 0.0316 µM, first compound 0.0316 µM
[20] = second compound 0.0316 µM, first compound 0.1 µM
[21] = second compound 0.0316 µM, first compound 0.316 µM
[22] = second compound 0.0316 µM, first compound 1 µM
[23] = second compound 0.0316 µM, first compound 3.16 µM
[24] = second compound 0.0316 µM, first compound 10 µM
[25] = second compound 0.1 µM, first compound 0.0316 µM
[26] = second compound 0.1 µM, first compound 0.1 µM
[27] = second compound 0.1 µM, first compound 0.316 µM
[28] = second compound 0.1 µM, first compound 1 µM
[29] = second compound 0.1 µM, first compound 3.16 µM
[30] = second compound 0.1 µM, first compound 10 µM
[31] = second compound 0.316 µM, first compound 0.0316 µM
[32] = second compound 0.316 µM, first compound 0.1 µM
[33] = second compound 0.316 µM, first compound 0.316 µM
[34] = second compound 0.316 µM, first compound 1 µM
[35] = second compound 0.316 µM, first compound 3.16 µM
[36] = second compound 0.316 µM, first compound 10 µM
[37] = second compound 1 µM, first compound 0.0316 µM
[38] = second compound 1 µM, first compound 0.1 µM
[39] = second compound 1 µM, first compound 0.316 µM
[40] = second compound 1 µM, first compound 1 µM
[41] = second compound 1 µM, first compound 3.16 µM
[42] = second compound 1 µM, first compound 10 µM
[43] = curve of first compound, second compound 3.16 µM
[44] = curve of first compound, second compound 10 µM
[45] = second compound 3.16 µM, first compound 0.0316 µM
[46] = second compound 3.16 µM, first compound 0.1 µM
[47] = second compound 3.16 µM, first compound 0.316 µM
[48] = second compound 3.16 µM, first compound 1 µM
[49] = second compound 3.16 µM, first compound 3.16 µM
[50] = second compound 3.16 µM, first compound 10 µM
[51] = second compound 10 µM, first compound 0.0316 µM
[52] = second compound 10 µM, first compound 0.1 µM
[53] = second compound 10 µM, first compound 0.316 µM
[54] = second compound 10 µM, first compound 1 µM
[55] = second compound 10 µM, first compound 3.16 µM
[56] = second compound 10 µM, first compound 10 µM

CC1(C)CCC(CN2CCN(c3ccc(C(=O)NS(=O)(=O)c4ccc(NCC5CCOCC5)c([N+](=O)[O-])c4)c(Oc4cnc5[nH]ccc5c4)c3)CC2)=C(c2ccc(Cl)cc2)C1 + COc1c(OCCCN2CCOCC2)ccc2c3n(c(=NC(=O)c4cnc(N)nc4)nc12)CCN3
IC50 [1]: > 10 µM
IC50 [2]: > 10 µM
IC50 [3]: > 10 µM
IC50 [4]: > 10 µM
IC50 [5]: < 0.0316 µM
IC50 [6]: < 0.0316 µM
viability, T/C [7]: 80.4%
viability, T/C [8]: 87%
viability, T/C [9]: 82.9%
viability, T/C [10]: 99.9%
viability, T/C [11]: 80.3%
viability, T/C [12]: 78.3%
viability, T/C [13]: 79.2%
viability, T/C [14]: 79.7%
viability, T/C [15]: 92%
viability, T/C [16]: 87.9%
viability, T/C [17]: 76.2%
viability, T/C [18]: 90.2%
viability, T/C [19]: 77.5%
viability, T/C [20]: 71.2%
viability, T/C [21]: 80%
viability, T/C [22]: 83.1%
viability, T/C [23]: 73%
viability, T/C [24]: 69.6%
viability, T/C [25]: 55.7%
viability, T/C [26]: 54.8%
viability, T/C [27]: 69.7%
viability, T/C [28]: 63.4%
viability, T/C [29]: 52.5%
viability, T/C [30]: 67.6%
viability, T/C [31]: 26.4%
viability, T/C [32]: 23.5%
viability, T/C [33]: 25.5%
viability, T/C [34]: 28.9%
viability, T/C [35]: 25.5%
viability, T/C [36]: 22.8%
viability, T/C [37]: 4.5%
viability, T/C [38]: 3.78%
viability, T/C [39]: 4.07%
viability, T/C [40]: 3.93%
viability, T/C [41]: 4.32%
viability, T/C [42]: 4.03%

Cn1nccc1Nc1nccc(-c2ccn(C(CO)c3ccc(Cl)c(F)c3)c(=O)c2)n1 (configuration not stated) + CC(Nc1ncnc2nc[nH]c12)c1cc2cccc(Cl)c2c(=O)n1-c1ccccc1
IC50 [3]: > 10 µM
IC50 [4]: > 10 µM
IC50 [5]: > 10 µM
IC50 [6]: > 10 µM
IC50 [43]: > 10 µM
IC50 [44]: < 0.0316 µM
viability, T/C [19]: 74.2%
viability, T/C [20]: 84.5%
viability, T/C [21]: 79.5%
viability, T/C [22]: 79.6%
viability, T/C [23]: 79.4%
viability, T/C [24]: 78.3%
viability, T/C [25]: 80.1%
viability, T/C [26]: 86.1%
viability, T/C [27]: 77.8%
viability, T/C [28]: 96.7%
viability, T/C [29]: 83.8%
viability, T/C [30]: 73.5%
viability, T/C [31]: 73.1%
viability, T/C [32]: 69.3%
viability, T/C [33]: 68.4%
viability, T/C [34]: 73%
viability, T/C [35]: 78.5%
viability, T/C [36]: 78.9%
viability, T/C [37]: 65.7%
viability, T/C [38]: 59.8%
viability, T/C [39]: 62%
viability, T/C [40]: 71.8%
viability, T/C [41]: 73.4%
viability, T/C [42]: 72%
viability, T/C [45]: 56.6%
viability, T/C [46]: 55.1%
viability, T/C [47]: 49%
viability, T/C [48]: 63.2%
viability, T/C [49]: 54.5%
viability, T/C [50]: 48.8%
viability, T/C [51]: 33.8%
viability, T/C [52]: 34.8%
viability, T/C [53]: 31.1%
viability, T/C [54]: 32.2%
viability, T/C [55]: 39.2%
viability, T/C [56]: 27.6%

CC1(C)CCC(Nc2ncc(C(F)(F)F)c(-c3c[nH]c4c(P(C)(C)=O)c(C#N)ccc34)n2)CN1 (configuration not stated) + Cc1nc(NC(=O)N2CCCC2C(N)=O)sc1-c1ccnc(C(C)(C)C(F)(F)F)c1
IC50 [3]: < 0.0316 µM
IC50 [4]: < 0.0316 µM
IC50 [5]: < 0.0316 µM
IC50 [6]: < 0.0316 µM
IC50 [43]: < 0.0316 µM
IC50 [44]: < 0.0316 µM
viability, T/C [19]: 12.9%
viability, T/C [20]: 13.4%
viability, T/C [21]: 10.2%
viability, T/C [22]: 12.3%
viability, T/C [23]: 10.3%
viability, T/C [24]: 1.66%
viability, T/C [25]: 13.4%
viability, T/C [26]: 13.6%
viability, T/C [27]: 11%
viability, T/C [28]: 11.7%
viability, T/C [29]: 9.67%
viability, T/C [30]: 1.49%
viability, T/C [31]: 16.6%
viability, T/C [32]: 10.6%
viability, T/C [33]: 9.57%
viability, T/C [34]: 11.6%
viability, T/C [35]: 9.4%
viability, T/C [36]: 1.34%
viability, T/C [37]: 13.8%
viability, T/C [38]: 10.9%
viability, T/C [39]: 9.4%
viability, T/C [40]: 10.7%
viability, T/C [41]: 7.46%
viability, T/C [42]: 1.27%
viability, T/C [45]: 15.4%
viability, T/C [46]: 10.6%
viability, T/C [47]: 9.84%
viability, T/C [48]: 9.67%
viability, T/C [49]: 5.93%
viability, T/C [50]: 1.32%
viability, T/C [51]: 11%
viability, T/C [52]: 7.92%
viability, T/C [53]: 8.97%
viability, T/C [54]: 6.88%
viability, T/C [55]: 4.2%
viability, T/C [56]: 0.98%

C=CC(=O)N1CCN(c2nc(=O)n(-c3c(C)ccnc3C(C)C)c3nc(-c4c(O)cccc4F)c(F)cc23)C(C)C1 (configuration not stated) + COc1c(OCCCN2CCOCC2)ccc2c3n(c(=NC(=O)c4cnc(N)nc4)nc12)CCN3
IC50 [1]: > 10 µM
IC50 [2]: > 10 µM
IC50 [3]: > 10 µM
IC50 [4]: > 10 µM
IC50 [5]: < 0.0316 µM
IC50 [6]: < 0.0316 µM
viability, T/C [7]: 92%
viability, T/C [8]: 92.9%
viability, T/C [9]: 97.5%
viability, T/C [10]: 109%
viability, T/C [11]: 104%
viability, T/C [12]: 79.1%
viability, T/C [13]: 81.1%
viability, T/C [14]: 80.5%
viability, T/C [15]: 102%
viability, T/C [16]: 97%
viability, T/C [17]: 99.7%
viability, T/C [18]: 70.1%
viability, T/C [19]: 75.2%
viability, T/C [20]: 73.4%
viability, T/C [21]: 79.8%
viability, T/C [22]: 89.7%
viability, T/C [23]: 80.2%
viability, T/C [24]: 65%
viability, T/C [25]: 56.7%
viability, T/C [26]: 58.4%
viability, T/C [27]: 50.9%
viability, T/C [28]: 63.1%
viability, T/C [29]: 61.5%
viability, T/C [30]: 41.3%
viability, T/C [31]: 29.9%
viability, T/C [32]: 26.6%
viability, T/C [33]: 27.8%
viability, T/C [34]: 31.4%
viability, T/C [35]: 28.2%
viability, T/C [36]: 18.4%
viability, T/C [37]: 4.14%
viability, T/C [38]: 3.02%
viability, T/C [39]: 3.41%
viability, T/C [40]: 3.9%
viability, T/C [41]: 3.76%
viability, T/C [42]: 2.73%

C[C@@H](NC(=O)c1ncnc(N)c1Cl)c1ncc(C(=O)Nc2cc(C(F)(F)F)c(Cl)cn2)s1
viability, T/C (compound 0.0316 µM): 95.6% [middle of 4 runs]
viability, T/C (compound 0.1 µM): 102% [middle of 4 runs]
viability, T/C (compound 1 µM): 99.1% [middle of 4 runs]
IC50 (curve of compound): > 10 µM
